Measurements taken from the supplement of paper PMC10307832.

What was measured:
Assay in all cases: relative viability (nuclei count vs DMSO), 5 days (fraction); higher = more cells survive
[1] = compound: COc1cc(Nc2c(C#N)cnc3cc(OCCCN4CCN(C)CC4)c(OC)cc23)c(Cl)cc1Cl [Bosutinib] + NC(=O)Nc1cc(-c2cccc(F)c2)sc1C(=O)N[C@H]1CCCNC1 [AZD7762] (partner 0.2 µM)
Outline: (§1)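 Values are medians from duplicate plates. Each reflects relative viability, defined as the nuclei count of treated wells over that of vehicle wells. Lung cancer cell lines in 1536-well plates were pin-tool dosed one day after seeding with one drug alone or with a fixed anchor-drug dose plus five library-drug doses (not always all listed) in √10 steps, then fixed, stained and imaged at 4× after 5 days.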

[2] = compound: COc1cc(Nc2c(C#N)cnc3cc(OCCCN4CCN(C)CC4)c(OC)cc23)c(Cl)cc1Cl [Bosutinib] + CC1(C)CCC(c2ccc(Cl)cc2)=C(CN2CCN(c3ccc(C(=O)NS(=O)(=O)c4ccc(N[C@H](CCN5CCOCC5)CSc5ccccc5)c(S(=O)(=O)C(F)(F)F)c4)cc3)CC2)C1 [Navitoclax] (partner 0.5 µM)
Outline: as §1

[3] = compound: COc1cc(Nc2c(C#N)cnc3cc(OCCCN4CCN(C)CC4)c(OC)cc23)c(Cl)cc1Cl [Bosutinib] + CC(=O)Nc1cccc(-n2c(=O)n(C3CC3)c(=O)c3c(Nc4ccc(I)cc4F)n(C)c(=O)c(C)c32)c1 [Trametinib] (partner 0.02 µM)
Outline: as §1

[4] = compound: COc1cc(Nc2c(C#N)cnc3cc(OCCCN4CCN(C)CC4)c(OC)cc23)c(Cl)cc1Cl [Bosutinib] + Nc1ncn([C@H]2C[C@H](O)[C@@H](CO)O2)c(=O)n1 [Decitabine] (partner 2 µM)
Outline: as §1

[5] = compound: COc1cc(Nc2c(C#N)cnc3cc(OCCCN4CCN(C)CC4)c(OC)cc23)c(Cl)cc1Cl [Bosutinib] + CCNC(=O)c1noc(-c2cc(C(C)C)c(O)cc2O)c1-c1ccc(CN2CCOCC2)cc1 [Luminespib] (partner 0.01 µM)
Outline: as §1

Row | Cell Line | relative viability ([1]; first compound 0.01 µM) | relative viability ([1]; first compound 0.03162 µM) | relative viability ([1]; first compound 0.1 µM) | relative viability ([1]; first compound 1 µM) | relative viability ([2]; first compound 0.01 µM) | relative viability ([2]; first compound 0.03162 µM) | relative viability ([2]; first compound 0.1 µM) | relative viability ([2]; first compound 1 µM) | relative viability ([3]; first compound 0.01 µM) | relative viability ([3]; first compound 0.03162 µM) | relative viability ([3]; first compound 0.1 µM) | relative viability ([3]; first compound 1 µM) | relative viability ([4]; first compound 0.01 µM) | relative viability ([4]; first compound 0.03162 µM) | relative viability ([4]; first compound 0.1 µM) | relative viability ([4]; first compound 1 µM) | relative viability ([5]; first compound 0.01 µM) | relative viability ([5]; first compound 0.03162 µM) | relative viability ([5]; first compound 0.1 µM) | relative viability ([5]; first compound 1 µM)
1 | NCI-H1395 | 0.405 | 0.425 | 0.387 | 0.38 | 1.45 | 1.01 | 1.34 | 1.12 | 0.992 | 0.993 | 1.02 | 0.928 | 0.687 | 0.756 | 0.688 | 0.735 | 0.677 | 0.635 | 0.761 | 0.615
2 | NCI-H1437 | 1.08 | 1.07 | 1.13 | 0.922 | 1.13 | 1.11 | 1.01 | 0.918 | 0.486 | 0.403 | 0.53 | 0.413 | 0.536 | 0.567 | 0.572 | 0.482 | 1.02 | 1.11 | 1.1 | 1.03
3 | NCI-H1651 | 0.473 | 0.515 | 0.443 | 0.441 | 1 | 1.17 | 0.88 | 0.961 | 0.805 | 0.801 | 0.829 | 0.757 | 0.511 | 0.711 | 0.688 | 0.625 | 0.738 | 0.942 | 0.812 | 0.902
4 | NCI-H1666 | 0.719 | 0.836 | 0.832 | 0.788 | 1 | 1.01 | 0.889 | 0.892 | 0.888 | 0.774 | 0.832 | 0.842 | 0.63 | 0.868 | 0.72 | 0.802 | 1.02 | 1.01 | 0.995 | 1.1
5 | NCI-H1734 | 0.632 | 0.512 | 0.512 | 0.369 | 0.808 | 0.827 | 0.853 | 0.737 | 0.693 | 0.711 | 0.726 | 0.591 | 0.511 | 0.55 | 0.483 | 0.458 | 0.172 | 0.181 | 0.217 | 0.196
6 | NCI-H1755 | 0.412 | 0.462 | 0.446 | 0.418 | 0.971 | 1.02 | 1.04 | 0.925 | 0.706 | 0.798 | 0.856 | 0.76 | 0.639 | 0.678 | 0.713 | 0.804 | 0.465 | 0.454 | 0.45 | 0.351
7 | NCI-H1792 | 0.641 | 0.543 | 0.778 | 0.273 | 0.68 | 0.682 | 0.67 | 0.619 | 0.478 | 0.416 | 0.437 | 0.316 | 0.611 | 0.561 | 0.623 | 0.417 | 0.528 | 0.35 | 0.411 | 0.367
8 | NCI-H1793 | 0.497 | 0.39 | 0.366 | 0.175 | 0.466 | 0.479 | 0.456 | 0.263 | 0.383 | 0.394 | 0.454 | 0.298 | 0.505 | 0.505 | 0.436 | 0.436 | 0.213 | 0.205 | 0.163 | 0.179
9 | NCI-H1915 | 0.718 | 0.647 | 0.654 | 0.572 | 0.802 | 0.824 | 0.823 | 0.81 | 0.306 | 0.291 | 0.295 | 0.253 | 0.265 | 0.261 | 0.242 | 0.267 | 0.768 | 0.816 | 0.815 | 0.64
10 | NCI-H1944 | 0.558 | 0.533 | 0.476 | 0.394 | 1.06 | 1.08 | 1.04 | 0.956 | 0.415 | 0.45 | 0.394 | 0.327 | 0.477 | 0.49 | 0.472 | 0.393 | 0.839 | 0.713 | 0.777 | 0.469
11 | NCI-H1975 | 0.742 | 0.711 | 0.642 | 0.559 | 1 | 1.06 | 1.1 | 0.991 | 0.29 | 0.329 | 0.42 | 0.322 | 0.45 | 0.369 | 0.398 | 0.371 | 0.244 | 0.252 | 0.21 | 0.141
12 | NCI-H1993 | 0.759 | 0.778 | 0.847 | 0.672 | 0.871 | 0.968 | 0.957 | 0.742 | 0.461 | 0.513 | 0.579 | 0.538 | 0.599 | 0.655 | 0.655 | 0.568 | 0.688 | 0.817 | 0.875 | 0.887
13 | NCI-H2085 | 1.1 | 0.903 | 0.939 | 0.65 | 1.14 | 1.13 | 1.11 | 1.2 | 0.564 | 0.467 | 0.54 | 0.5 | 0.553 | 0.564 | 0.543 | 0.606 | 0.393 | 0.466 | 0.492 | 0.44
14 | NCI-H2087 | 1.54 | 1.13 | 1.31 | 1.24 | 0.905 | 0.926 | 0.972 | 1.04 | 0.156 | 0.218 | 0.228 | 0.223 | 0.289 | 0.311 | 0.294 | 0.271 | 0.194 | 0.154 | 0.146 | 0.151
15 | NCI-H2126 | 0.982 | 1.04 | 1.03 | 1.04 | 0.797 | 0.904 | 0.85 | 0.776 | 0.528 | 0.546 | 0.559 | 0.536 | 0.548 | 0.537 | 0.609 | 0.588 | 0.848 | 0.828 | 0.874 | 0.725
16 | NCI-H2170 | 0.922 | 0.924 | 0.819 | 0.801 | 0.527 | 0.67 | 0.702 | 0.468 | 0.93 | 0.896 | 0.948 | 0.946 | 0.429 | 0.465 | 0.463 | 0.457 | 0.515 | 0.665 | 0.702 | 0.44
17 | NCI-H2347 | 0.748 | 0.725 | 0.777 | 0.487 | 0.797 | 0.793 | 0.752 | 0.781 | 0.309 | 0.27 | 0.297 | 0.307 | 0.631 | 0.623 | 0.64 | 0.529 | 0.39 | 0.507 | 0.472 | 0.266
18 | NCI-H2405 | 0.873 | 0.739 | 0.701 | 0.598 | 0.943 | 0.812 | 0.892 | 0.477 | 0.659 | 0.653 | 0.605 | 0.396 | 0.749 | 0.775 | 0.757 | 0.57 | 0.661 | 0.645 | 0.696 | 0.439
19 | NCI-H3122 | 1.01 | 0.884 | 0.947 | 0.975 | 0.99 | 0.972 | 1.01 | 1.03 | 0.203 | 0.273 | 0.205 | 0.256 | 0.43 | 0.462 | 0.388 | 0.538 | 0.0649 | 0.0933 | 0.104 | 0.104
20 | PC-3 [JPC-3] | 0.787 | 0.738 | 0.689 | 0.641 | 0.856 | 0.797 | 0.807 | 0.768 | 0.725 | 0.691 | 0.647 | 0.467 | 0.883 | 0.798 | 0.826 | 0.596 | 0.679 | 0.835 | 0.685 | 0.569
21 | PC-14 | 0.351 | 0.284 | 0.287 | 0.193 | 0.967 | 0.975 | 1.02 | 0.474 | 0.721 | 0.675 | 0.491 | 0.13 | 0.248 | 0.226 | 0.224 | 0.174 | 0.109 | 0.394 | 0.126 | 0.16
22 | RERF-LC-KJ | 0.979 | 0.982 | 1.07 | 0.877 | 0.845 | 1.08 | 0.893 | 0.743 | 0.733 | 0.809 | 0.902 | 0.826 | 0.643 | 0.656 | 0.645 | 0.737 | 1.22 | 1.21 | 1.18 | 1.15
